{"source": "patent US20150176037A1", "about": "“OXIDOREDUCTASE REACTION CONTROL AND USE THEREOF” (Amano Enzyme Inc., priority 2012, published 2015)", "target": "T1, formate dehydrogenase (FDH) (Candida boidinii, UniProt O13437)", "T1 sequence (O13437 1-364)": "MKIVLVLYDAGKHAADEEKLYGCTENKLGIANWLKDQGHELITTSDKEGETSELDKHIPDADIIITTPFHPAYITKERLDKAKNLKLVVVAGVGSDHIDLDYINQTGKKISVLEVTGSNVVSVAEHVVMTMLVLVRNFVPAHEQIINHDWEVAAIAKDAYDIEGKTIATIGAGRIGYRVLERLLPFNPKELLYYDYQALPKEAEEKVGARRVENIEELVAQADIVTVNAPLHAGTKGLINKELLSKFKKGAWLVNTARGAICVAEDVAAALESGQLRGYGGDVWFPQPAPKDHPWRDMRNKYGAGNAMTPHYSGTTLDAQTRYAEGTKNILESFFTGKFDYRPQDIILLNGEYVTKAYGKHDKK", "experiment": "FDH reaction system using methylviologen as artificial coenzyme", "type": "biochemical", "details": "5.0 units FDH", "method": "2.2 mM of formic acid, 4.4 mM of methylviologen (MV^2+ was used), and 5.0 units of FDH were incubated, and NADH was detected (lower row, left).\nThe enzyme catalyzing the reaction converting formic acid into carbon dioxide, “formate dehydrogenase (FDH)” also catalyzes the reaction converting carbon dioxide into formic acid. It should be noted that the speed of the conversion reaction from carbon dioxide into formic acid (reverse reaction) is about one sixth the speed of the conversion reaction from formic acid into carbon dioxide (forward reaction) (FIG. 1). Suppression of the forward reaction is important for the formation of formic acid from carbon dioxide using this enzyme. The original coenzyme of FDH is NAD^+, but methylviologen may be used as an artificial coenzyme (mediator) (Non-Patent Literature 2). However, in the past report, only the interaction between FDH and methylviologen is electrochemically measured, so that no essential finding about the interaction is obtained. Therefore, we studied the characteristics of the […] reaction system using methylviologen as an artificial coenzyme in detail. […] Methylviologen is advantageous also in that it is readily photoreduced using a photosensitive molecule. In contrast, photoreduction of the original coenzyme, NAD^+ is not easy."}
{"compound": "C[n+]1ccc(-c2cc[n+](C)cc2)cc1", "note": "[methylviologen, 1,1′-dimethyl-4,4′-bipyridinium dichloride]", "values": [{"measurement": "conversion reaction from carbon dioxide into formic acid (reverse reaction)", "setting": "2.2 mM CO2, 4.4 mM MV^2+ reduced", "value": "only proceeds"}, {"measurement": "conversion reaction from formic acid into carbon dioxide (forward reaction)", "setting": "2.2 mM formic acid, 4.4 mM MV^2+", "value": "does not proceed at all"}]}
